Test results from paper PMC7344390, “Leptogorgins A–C, Humulane Sesquiterpenoids from the Vietnamese Gorgonian Leptogorgia sp” (Marine Drugs, 2020).

Experiments:
[1] = test system: 22Rv1 cells (human drug-resistant prostate cancer cells); assay: In vitro MTT-based drug sensitivity assay, 22Rv1 cells; conditions: 72 h treatment, read-out: IC50 (cell viability, MTT)
Protocol: (§1) The human prostate cancer cells 22Rv1 and human prostate non-cancer cells PNT2 were purchased from ATCC. Cell lines were cultured according to the manufacturer’s instructions in 10% FBS/RPMI media (Invitrogen, Carlsbad, CA, USA) and handled as described in [29].
(§2) The in vitro cytotoxic activities of the isolated substances were evaluated by MTT assays. The assays were performed as described previously. In brief, cells were seeded in 96-well plates (6 × 10^3 cells/well), incubated overnight, and treated with the tested compounds for 72 h. Next, 10 μL/well of MTT reagent was added and the plates were incubated for 2 h. The media were aspirated and the plates were dried. The formed formazan crystals were dissolved in DMSO and the cell viability was measured using an Infinite F200PRO reader (TECAN, Männedorf, Switzerland). Results were calculated by the GraphPad Prism software v. 7.05 (GraphPad Prism software Inc., La Jolla, CA, USA) and are represented as the IC50 of the compounds against the control cells treated with the solvent alone.

[2] = test system: PNT2 cells (human prostate non-cancer cells); assay: In vitro MTT-based drug sensitivity assay, PNT2 cells; conditions: 72 h treatment, read-out: IC50 (cell viability, MTT)
Protocol: as §1, §2

HT-29 = test system: HT-29; design: method as in PMID 12881017; conditions: human cancer HT-29 cell line; more active than curcumin; cited from earlier work
CaCO-2 = test system: CaCO-2; design: method as in PMID 12881017; conditions: human cancer CaCO-2 cell line; more active than curcumin; cited from earlier work
NCF-7 = test system: NCF-7; design: method as in PMID 12881017; conditions: human cancer NCF-7 cell line; more active than curcumin; cited from earlier work

IC50 [1] [µM]	Compound	IC50 [2] [µM]	antitumor activity (HT-29)	antitumor activity (CaCO-2)	antitumor activity (NCF-7)
31	CC1=CCC(C)(C)C=CC(=O)C(CO)=CC(O)C1 (stereo not drawn) [Compound 1, 4-oxohumula-2E,5E,9E-trien-7S,12-diol]	35.8			
> 100	CC(=O)OC1C=C(CO)C(=O)C=CC(C)(C)CC=C(C)C1 (stereo not drawn) [Compound 2, 4-oxohumula-2E,5E,9E-trien-7S-acetate,12-ol]	> 100			
0.084	COc1cccc2c1C(=O)c1c(O)c3c(c(O)c1C2=O)C[C@@](O)(C(=O)CO)C[C@@H]3O[C@H]1C[C@H](N)[C@H](O)[C@H](C)O1 [Doxorubicine]	1.12			
	C/C1=C\CC(C)(C)/C=C/C(=O)/C(C)=C/CC1 [zurumbone, 2,6,9-humulatriene-8-one]		active	active	active
